Data reported in ChEMBL document CHEMBL1921688, “Alkaloids from Chelidonium majus and their inhibitory effects on LPS-induced NO production in RAW264.7 cells” (Bioorg Med Chem Lett, 2011).
The source made the active and inactive calls. No cut-off for these calls is given here.

Key:
RAW264.7 [1] = assay: Cytotoxicity against mouse RAW264.7 cells assessed as cell viability at 50 uM after 24 hrs by MTT assay; type: cell-based; conditions: raw264.7, 24 h
RAW264.7 [2] = assay: Antiinflammatory activity in mouse RAW264.7 cells assessed as inhibition of LPS-induced iNOS production after 18 hrs by Western blot analysis; type: functional, cell-based
RAW264.7 [3] = assay: Antiinflammatory activity in mouse RAW264.7 cells assessed as inhibition of LPS-induced iNOS production at 1 uM after 18 hrs by Western blot analysis; type: functional, cell-based
RAW264.7 [4] = assay: Antiinflammatory activity in mouse RAW264.7 cells assessed as inhibition of LPS-induced COX2 production at 3 uM after 18 hrs by Western blot analysis; type: functional, cell-based
RAW264.7 [5] = assay: Antiinflammatory activity in mouse RAW264.7 cells assessed as inhibition of LPS-induced COX2 production after 18 hrs by Western blot analysis; type: functional, cell-based
RAW264.7 [6] = assay: Antiinflammatory activity in mouse RAW264.7 cells assessed as inhibition of LPS-induced COX2 promoter activity; type: functional, cell-based
RAW264.7 [7] = assay: Antiinflammatory activity in mouse RAW264.7 cells assessed as inhibition of LPS-induced iNOS promoter activity; type: functional, cell-based
RAW264.7 [8] = assay: Antiinflammatory activity in mouse RAW264.7 cells assessed as inhibition of LPS-induced nitric oxide production after 24 hrs by griess assay; type: functional, cell-based; conditions: RAW264.7, 24 h
RAW264.7 [9] = assay: Antiinflammatory activity in mouse RAW264.7 cells assessed as inhibition of LPS-induced iNOS production at 3 uM after 18 hrs by Western blot analysis; type: functional, cell-based

SMILES: CN1c2c(ccc3cc4c(cc23)OCO4)-c2ccc3c(c2C1O)OCO3 (stereo not given)
- Activity (RAW264.7 [1]): Non-toxic
- inhibition (RAW264.7 [2]): Dose-dependent effect
- inhibition (RAW264.7 [3]): Active
- inhibition (RAW264.7 [4]): Active
- inhibition (RAW264.7 [5]): Dose-dependent effect
- inhibition (RAW264.7 [6]): Active
- inhibition (RAW264.7 [7]): Active
- IC50 (RAW264.7 [8]): 4.5 µM

SMILES: COC(=O)CC1c2c(ccc3c2OCO3)-c2ccc3cc4c(cc3c2N1C)OCO4 (stereo not given)
- Activity (RAW264.7 [1]): Non-toxic
- IC50 (RAW264.7 [8]): > 50 µM

SMILES: COc1ccc2cc3[n+](cc2c1OC)CCc1cc2c(cc1-3)OCO2 [BERBERINE]
- Activity (RAW264.7 [1]): Non-toxic
- IC50 (RAW264.7 [8]): > 30 µM

SMILES: CN1Cc2c(ccc3c2OCO3)[C@@H]2[C@H]1c1cc3c(cc1C[C@@H]2O)OCO3 [CHELIDONINE]
- Activity (RAW264.7 [1]): Non-toxic
- inhibition (RAW264.7 [2]): Dose-dependent effect
- inhibition (RAW264.7 [4]): Active
- inhibition (RAW264.7 [5]): Dose-dependent effect
- inhibition (RAW264.7 [9]): Active
- inhibition (RAW264.7 [6]): Active
- inhibition (RAW264.7 [7]): Active
- IC50 (RAW264.7 [8]): 7.3 µM

SMILES: O[C@@H]1Cc2cc3c(cc2[C@@H]2NCc4c(ccc5c4OCO5)[C@H]12)OCO3 [NORCHELIDONINE]
- Activity (RAW264.7 [1]): Non-toxic
- IC50 (RAW264.7 [8]): 16.5 µM

SMILES: CN1CCc2cc3c(cc2C(=O)Cc2ccc4c(c2C1)OCO4)OCO3 [PROTOPINE]
- Activity (RAW264.7 [1]): Non-toxic

SMILES: c1cc2c(c3c1C[C@H]1c4cc5c(cc4CCN1C3)OCO5)OCO2 [STYLOPINE]
- Activity (RAW264.7 [1]): Non-toxic
- IC50 (RAW264.7 [8]): > 50 µM
